Laboratory results: US10066004B2 (ARIZONA CANCER THERAPEUTICS, LLC, priority 2010, dated 2018)
Where two headings read alike, the source gives them in different places. Positions of bridges follow the written chain, without caps; N, C: chain ends. Non-standard residues stand in square brackets, D forms with d. Residues, ends and D or L forms follow the SMILES beside them. No end group written: not given here. R8 = C=CCCCCCC[C@@](C)(N)C(=O)O; S5 = C=CCCC[C@](C)(N)C(=O)O

Legend:
[1] = system: patient-derived glioma lines (BT145, BT147, GB16, GB7, GB42); experiment: Viability of patient-derived GBM cells; assay type: cell-based
Source text: FIG. 13A and FIG. 13B show treatment of patient-derived GBM cells with various EGFR inhibitor peptides.
(§1) EGFR is amplified or mutated in more than 40% of glioblastoma multiforme (GBM) tumors. Referring to FIG. 13-14, inhibitor peptides of the present invention were used to treat GBM cells and tumors.

GBM tumors = experiment: In vivo tumor growth, daily subcutaneous injections of SAH-EJ1; set-up: species or system mice; details: 10 mg/kg daily subcutaneous, vs control mouse
Source text: as §1

Ecyl EGFR peptide = experiment: ITC binding experiments
SKOV3 cells = experiment: MTT killing of erbB2 positive ovarian cancer cells, one hour treatment; assay type: cell-based
Experimental: The erbB2 positive ovarian cancer cell line, SKOV3 was treated with SAH5-EJ1 for one hour with concentrations between 10 uM and 40 uM.

MDA-MB-468 cells = details: MDA-MB-468, 20 uM peptide, 3 days (FIG. 1)
Experimental: Inhibitor peptides were evaluated on their ability to inhibit growth of triple-negative breast cancer cells MDA-MB-468 (20 uM peptide treatment). […] SEQ ID NO: 13 is […] SEQ ID NO: 14 is […] SEQ ID NO: 15 is […] SEQ ID NO: 16 is […] SEQ ID NO: 17 is […] SEQ ID NO: 18 is […] SEQ ID NO: 19 is […] SEQ ID NO: 20 is […] SEQ ID NO: 21 is […] SEQ ID NO: 22 is […] SEQ ID NO: 23 is […] SEQ ID NO: 24 is […] SEQ ID NO: 25 is […]
(§2) Peptide designations are indicated in the right column. Changes from EJ1 in EJ2-11 are denoted in the second column from the right. (d-j) Cell lines were treated daily with 20 μmol/l EJ1, 20 μmol/l CP, or vehicle (water) for 3 days unless otherwise noted, and cell viability was determined by the MTT assay. Growth rates for vehicle-treated cells were set to 100%, and CP and EJ1 rates were adjusted accordingly. *P<0.05, **P<0.01, ***P<0.001 (Student's t-test). Error bars, mean±SD. (From Hart et al., 2013, Molecular Therapy 21(11):1996-2007, the disclosure of which is incorporated herein in its entirety.)
To do this, we created cell-penetrating peptides to act as dominant-negative “decoys,” thereby inhibiting endogenous jxm interactions. Peptides specific for jxm subdomains were synthesized downstream of the protein transduction domain-4 (PTD4; FIG. 6). Next, the effect of peptide treatment on cell viability was analyzed on the breast cancer cell line MDA-MB-468 by MTT (3-[4,5-dimethylthiazol-2-yl]-2,5-diphenyl tetra-zolium bromide) analysis after 3 days of treatment.
(§3) Protein lysate preparation, immunoprecipitation, and western blotting were performed as described previously. For cross-linking, cells were first incubated according to manufacturer instructions with 3 μmol/l DMS, a membrane-permeable, noncleavable, cross-linking agent (Thermo Scientific, Waltham, Mass.). Cells were analyzed both by the MTT assay following manufacturer's instructions (Sigma) and using a U-Quant Spectrophotometer (Bio-TEK Instruments, Winooski, Vt.).

AsPC1 cells = details: human, 3 day, 20 μmol/l
Experimental: as §2, §3

MDA-MB-231 cells = details: human, 3 day, 20 μmol/l
Experimental: as §2, §3

MIA PaCa-2 cells = details: human, 3 day, 20 μmol/l
Experimental: as §2, §3

T47D cells = details: human, 3 day, 20 μmol/l
Experimental: as §2, §3

[2] = system: MMTV-pyMT murine model of breast cancer; experiment: Tumor growth and lung metastasis in MMTV-pyMT transgenic mice; assay type: in vivo, mouse; details: 20 μg/g body weight i.p. daily
Experimental: (a) MMTV-PyMT mice were allowed to develop tumors of 50 mm^3 before being treated once daily (i.p. injection) with indicated doses of Ctrls (20 μg/g CP5 (n=3), PBS (n=2)) and EJ1 (10 μg/g (n=6), 15 μg/g (n=1), and 20 μg/g (n=7), or twice-daily doses of 40 μg/g (n=3)). Peaks represent average total tumor burden growth rate in mm^3 per day for each treatment. Error bars, mean±SD. *P<0.05; **P<0.005, Student's t-test. (b) Control (12 mice (20 μg/g CP5 (n=5), PBS (n=7), n=100 tumors) vs. 20 μg/g EJ1-treated (eight mice, n=72 tumors) individual tumor growth rates and representative tumor images (insets). Mean denoted by horizontal line. **P<0.005, Student's t-test. (c) Mice were treated with 10, 15, or 20 μg/g body weight EJ1 or control for 21 days and tumors were measured twice weekly. Box plots are shown for day 0 (10 μg/g EJ1: n=6 mice, 21 tumors; 15 μg/g EJ1: n=1 mouse, two tumors; 20 μg/g EJ1: n=8 mice, 24 tumors; Ctrls: n=12 mice, 41 tumors) and final day (10 μg/g EJ1: n=6 mice, 46 tumors; 15 μg/g EJ1: n=1 mouse, nine tumors; 20 μg/g EJ1: n=8 mice, 72 tumors; Ctrls: n=12 mice, 100 tumors). […]
Additionally, many resected EJ1-treated tumors were necrotic in appearance compared with those in controls (FIG. 11b (insets)). […] The MMTV-pyMT transgenic mice present with lung metastasis; we therefore evaluated the effects of EJ1 on lung metastasis. […]

CaMKII = CaMKII phosphorylation, immunoblot in MDA-MB-468 cells; assay type: cell-based; details: MDA-MB-468, EGF or ionomycin, 15 minutes
Experimental: (a) MDA-MB-468 cells were treated with either 20 μmol/l CP (A-D) or 20 μmol/l EJ1 (E-H) for 0 minutes (A, E), 15 minutes (B, F), 60 minutes (C, G), or 16 hours (D, H). […] (b) BxPC3 cells were serum starved overnight, then treated with 20 μmol/l EJ1 and 50 ng/ml Texas-Red-labeled EGF, and imaged for 30 minutes with an Olympus IX71 deconvolution microscope. Panels A-F are bright field images, D′-F′ are red channel images (Texas-Red-labeled EGF). […] (c) Diagram depicts Ca^2+/CaM-regulated signaling pathway, and inhibitors acting at different targets are indicated. (d) MDA-MB-468 cells were pretreated with 50 μmol/l W-13 (D-F), 10 μmol/l ML-7 (G-I), or 10 μmol/l Y-27632 (J-L) in complete medium at 37° C. for 30 minutes and then treated with vehicle, 20 μmol/l CP, or 20 μmol/l EJ1 in combination with W-13, ML-7, or Y-27632 in complete medium at 37° C. for 15 minutes. Images represent the bright field images. […] Error bars, mean±SD. (f) MDA-MB-468 cells were either in serum-free medium (SF) or stimulated with 100 ng/ml EGF (EGF) and then incubated with water (Vehicle), 20 μmol/l CP, 20 μmol/l EJ1, 2 μmol/l ionomycin, 50 μmol/l W-13, 100 μmol/l KN-93, or EJ1 in combination with ionomycin for 15 minutes. Lysates were immunoblotted with antibodies as indicated. […] Error bars, mean±SD. […]

Peptide solubility = assay type: physicochemical
Experimental: The EJ peptides were synthesized by GenScript (Scotch Plains, N.J.), delivered lyophilized, and stored at −20° C. Peptides were resuspended as needed at 1 mmol/1 in water and stored for up to 2 weeks at 4° C. EJ1 peptide sequences are shown conjugated to the PTD4 domain ([…] (SEQ ID NO: 110)) in FIG. 6c.

CC[C@H](C)[C@H](NC(=O)[C@H](Cc1c[nH]cn1)NC(=O)[C@H](CCCNC(=N)N)NC(=O)[C@H](CCCNC(=N)N)NC(=O)[C@H](CCCNC(=N)N)NC(=O)[C@H](CCSC)NC(=O)[C@H](Cc1ccccc1)NC(=O)[C@H](C)NC(=O)[C@H](CCCNC(=N)N)NC(=O)[C@H](C)NC(=O)[C@H](CCC(N)=O)NC(=O)[C@H](CCCNC(=N)N)NC(=O)[C@H](C)NC(=O)[C@H](C)NC(=O)[C@H](C)NC(=O)[C@H](CCCNC(=N)N)NC(=O)[C@H](C)NC(=O)[C@@H](N)Cc1ccc(O)cc1)C(=O)N[C@]1(C)CCCCCCC=CCCC[C@@](C)(C(=O)N[C@@H](CC(C)C)C(=O)N[C@@H](CC(C)C)C(=O)N[C@@H](CCC(N)=O)C(=O)N[C@@H](CCC(=O)O)C(=O)N[C@@H](CCCNC(=N)N)C(=O)N[C@@H](CCC(=O)O)C(=O)O)NC(=O)[C@H](CCCNC(=N)N)NC(=O)[C@H](CC(C)C)NC(=O)[C@H]([C@@H](C)O)NC(=O)[C@H](CCCNC(=N)N)NC(=O)[C@H](CCCCN)NC(=O)[C@H](CCCNC(=N)N)NC1=O [SAH-EJ1] (H-YARAAARQARAFMRRRHI[R8]RKRTLR[S5]LLQERE-OH; staple 19-26; N-terminus and C-terminus assumed)
cell viability of patient-derived glioma lines ([1]; BT145 and BT147 (FIG. 13A)): decrease in viability | cell viability of patient-derived glioma lines ([1]; GB16, GB7, GB42 and BT147, 24 hr treatment (FIG. 13B)): decrease in viability | tumor growth in vivo (GBM tumors): growth of the tumor is reduced | tumor growth in vivo (GBM tumors; listed as stapled EJ): decrease tumor growth | Kd (Ecyl EGFR peptide; 100 uM and 150 uM experiments, read-out: Kd, average of both experiments): ~2850 nM | Kd (Ecyl EGFR peptide; peptide at 100 uM, target at 500 uM, read-out: Kd): 2500 nM | Kd (Ecyl EGFR peptide; peptide at 150 uM, target at 500 uM, read-out: Kd): 3200 nM

SAH5-EJ1: stapled EJ1: PTD4 domain combined with SEQ ID NO: 103 (YARAAARQARAFMRRRHIVRKR[R8]LRRLLQ[S5]RE; staple 23-30 (inferred))
concentration inducing optimal cell killing (SKOV3 cells; SKOV3, one hour of treatment): 5.0 to 10.0 µM | cell killing (MTT) (SKOV3 cells; SKOV3, one hour, 10 uM to 40 uM): all cells were killed

YARAAARQARAFMRRRHIVRKRTLRRLLQERE [EJ1]
survival rate of cells after 3 days (MDA-MB-468 cells): 5% | reduction of cellular viability (AsPC1 cells): 10% | reduction of cellular viability (MDA-MB-231 cells): 10% | reduction of cellular viability (MIA PaCa-2 cells): 1% | reduction of cellular viability (T47D cells): 60% | toxicity (weight loss, grooming behavior, gross changes to organs upon necropsy) [2]: no toxicity

C[C@H](CCC(=O)O)C[C@H](C)C[C@H](C)C(=O)/C=C(\O)[C@H](C)C[C@H](C)C/C=C/[C@@H](C)[C@@H](O)[C@@H](C)[C@@H](O)C[C@@H]1CC[C@@](C)([C@H]2CC[C@@](C)([C@@H](C)O)O2)O1 [ionomycin]
CaMKII phosphorylation (CaMKII): induced CaMKII phosphorylation

YARAAARQARAFMAAAHIVAAATLAALLQERE [EJ8]
solubility of peptide (Peptide solubility): insoluble
